Data reported in ChEMBL document CHEMBL3352488, “1,3-Dimethyl Benzimidazolones Are Potent, Selective Inhibitors of the BRPF1 Bromodomain” (ACS Med Chem Lett, 2014).
≈ marks a conversion by molar mass, not a printed value. Calls of active or inactive are those of the source. The calls are words filed in the database; no cut-off is given here.

Key:
[1] = Permeability of the compound across artificial lipid membrane; assay type: ADME; conditions: not told; read-out: permeability
[2] = Aqueous solubility of the compound in DMSO/phosphate buffered saline at pH7.4 by chemiluminescent nitrogen detection method; assay type: physicochemical; conditions: pH 7.4
[3] = molecular target: Bromodomain-containing protein 4 (Homo sapiens, UniProt O60885, Y390A); assay: Binding affinity to 6His-tagged-BRD4 BD1 Y390A mutant (1 to 477 aa) (unknown origin) by TR-FRET competitive assay
[4] = molecular target: Bromodomain-containing protein 4 (Homo sapiens) (UniProt O60885); assay: Binding affinity to His-tagged-BRD4 BD1 (1 to 477 aa) (unknown origin) by STD-NMR analysis
[5] = molecular target: Bromodomain-containing protein 4 (Homo sapiens) (UniProt O60885); assay: Binding affinity to His-tagged-BRD4 BD1 (1 to 477 aa) (unknown origin) by STD-NMR analysis in presence of GW841819

Structure (SMILES)	IC50 [3]	also measured
COc1ccccc1C(=O)Nc1cc2c(cc1N1CCCCC1)n(C)c(=O)n2C		Papp [1]: 35 ×10⁻⁶ cm/s; solubility kinetic [2]: 25 µM (≈ 9.86 µg/mL)
COc1cccc(C(=O)Nc2cc3c(cc2C)n(C)c(=O)n3C)c1	> 50.1 µM	
Cc1ccc(S(=O)(=O)Nc2ccc3c(c2)n(C)c(=O)n3C)c(C)c1	2.51 µM	
COc1cccc(C(=O)Nc2ccc3c(c2)n(C)c(=O)n3C)c1	15.8 µM	
Cn1c(=O)n(C)c2cc(C(N)=O)ccc21	79.4 µM	Activity [4]: Active; Activity [5]: inactive
COc1ccccc1C(=O)Nc1ccc2c(c1)n(C)c(=O)n2C	> 50.1 µM	
